Measurements reported in patent publication US20090239845A1, “PYRAZOLE COMPOUNDS AS PROSTAGLANDIN RECEPTORS LIGANDS” (priority 2005, published 2009).
Where a name gives a salt, the structure may show the parent alone.

Molecular target: T1, human EP1 receptor (Homo sapiens, UniProt P34995)
T1 construct: expressed in transfected cells; host or cells: CHO-K1
T1 sequence (P34995 1-402): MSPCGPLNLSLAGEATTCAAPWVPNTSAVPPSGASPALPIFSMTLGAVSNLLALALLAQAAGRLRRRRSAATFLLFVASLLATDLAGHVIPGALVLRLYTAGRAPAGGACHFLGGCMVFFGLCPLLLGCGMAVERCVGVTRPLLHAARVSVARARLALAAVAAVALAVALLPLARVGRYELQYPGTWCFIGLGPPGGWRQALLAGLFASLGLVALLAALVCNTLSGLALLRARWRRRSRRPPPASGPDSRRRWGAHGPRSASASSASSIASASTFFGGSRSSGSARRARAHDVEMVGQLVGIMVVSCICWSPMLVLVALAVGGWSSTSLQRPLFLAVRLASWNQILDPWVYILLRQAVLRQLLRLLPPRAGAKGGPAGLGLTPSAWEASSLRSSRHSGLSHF
Assay: human EP1 calcium mobilisation assay
Assay type: cell-based
Conditions: negative logarithm10 of the antagonist dissociation constant; CHO-K1 cells, PGE2; free bases or sodium salts; averages of a number of experiments; read-out: functional pKi value (converted)

| Ki [nM] | SMILES |
| --- | --- |
| > 1000 | Cc1cc(NC(=O)OC(C)(C)C)nn1Cc1cc(Br)ccc1OCc1ccc(F)cc1F [Example 6, 1,1-Dimethylethyl {1-[(5-bromo-2-{[(2,4-difluorophenyl)methyl]oxy}phenyl)methyl]-5-methyl-1H-pyrazol-3-yl}carbamate] |
| > 1000 | Cc1cc(NC(=O)OC(C)C)nn1Cc1cc(Br)ccc1OCc1ccc(Cl)cc1Cl [Example 9, 1-Methylethyl {1-[(5-bromo-2-{[(2,4-dichlorophenyl)methyl]oxy}phenyl)methyl]-5-methyl-1H-pyrazol-3-yl]carbamate] |
| > 1000 | Cc1cc(NC(=O)Cc2ccccc2)nn1Cc1cc(Cl)ccc1OCc1cc(F)c(F)cc1F [Example 126, N-{1-[(5-Chloro-2-{[(2,4,5-trifluorophenyl)methyl]oxy}phenyl)methyl]-5-methyl-1H-pyrazol-3-yl}-2-phenylacetamide] |

Molecular target: T2, human prostanoid EP1 receptor (Homo sapiens, UniProt P34995)
T2 construct: expressed in transfected cells; host or cells: CHO-K1 (membrane fraction)
T2 sequence (P34995 1-402): T1 sequence (P34995 1-402)
Assay: Binding assay for the human prostanoid EP1 receptor (competition with [3H]-PGE2)
Conditions: negative logarithm10 of the IC50; competition with [3H]-PGE2, CHO-K1 cell membranes; averages of a number of experiments; read-out: pIC50 value (converted)
Description: Competition assay using [^3H]-PGE2.
Compound potencies are determined using a radioligand binding assay. In this assay compound potencies are determined from their ability to compete with tritiated prostaglandin E2 ([^3H]-PGE2) for binding to the human EP1 receptor.
This assay utilises Chinese hamster ovary-K1 (CHO-K1) cells into which a stable vector containing the EP1 cDNA has previously been transfected. Cells are cultured in suitable flasks containing culture medium such as DMEM:F-12 supplemented with 10% v/v foetal calf serum, 2 mM L-glutamine, 0.25 mg/ml geneticin, 10 μg/ml puromycin and 10 μM indomethacin.
Cells are detached from the culture flasks by incubation in calcium and magnesium free phosphate buffered saline containing 1 mM disodium ethylenediaminetetraacetic acid (Na2EDTA) and 10 μM indomethacin for 5 min. The cells are isolated by centrifugation at 250×g for 5mins and suspended in an ice cold buffer such as 50 mM Tris, 1 mM Na2EDTA, 140 mM NaCl, 10 μM indomethacin (pH 7.4). The cells are homogenised using a Polytron tissue disrupter (2×10s burst at full setting), centrifuged at 48,000×g for 20mins and the pellet containing the membrane fraction is washed (optional) three times by suspension and centrifugation at 48,000×g for 20mins. The final membrane pellet is suspended in an assay buffer such as 10 mM 2-[N-morpholino]ethanesulphonic acid, 1 mM Na2EDTA, 10 mM MgCl2 (pH 6). Aliquots are frozen at −80° C. until required.
For the binding assay the cell membranes, competing compounds and [^3H]-PGE2 (3 nM final assay concentration) are incubated in a final volume of 100 μl for 30 min at 30° C. All reagents are prepared in assay buffer. Reactions are terminated by rapid vacuum filtration over GF/B filters using a Brandell cell harvester. The filters are washed with ice cold assay buffer, dried and the radioactivity retained on the filters is measured by liquid scintillation counting in Packard TopCount scintillation counter.
The data are analysed using non linear curve fitting techniques to determine the concentration of compound producing 50% inhibition of specific binding (IC50).

| IC50 [nM] | SMILES |
| --- | --- |
| ≤ 10 | Cc1cc(NC(=O)OC(C)(C)C)nn1Cc1cc(Br)ccc1OCc1ccc(F)cc1F [Example 6, 1,1-Dimethylethyl {1-[(5-bromo-2-{[(2,4-difluorophenyl)methyl]oxy}phenyl)methyl]-5-methyl-1H-pyrazol-3-yl}carbamate] |
| ≤ 10 | Cc1cc(NC(=O)OC(C)C)nn1Cc1cc(Br)ccc1OCc1ccc(Cl)cc1Cl [Example 9, 1-Methylethyl {1-[(5-bromo-2-{[(2,4-dichlorophenyl)methyl]oxy}phenyl)methyl]-5-methyl-1H-pyrazol-3-yl]carbamate] |
| ≤ 10 | Cc1cc(NC(=O)Cc2ccccc2)nn1Cc1cc(Cl)ccc1OCc1cc(F)c(F)cc1F [Example 126, N-{1-[(5-Chloro-2-{[(2,4,5-trifluorophenyl)methyl]oxy}phenyl)methyl]-5-methyl-1H-pyrazol-3-yl}-2-phenylacetamide] |
| ≤ 10 | Cc1cc(-c2nc3ncccc3[nH]2)nn1Cc1cc(Cl)ccc1OCC(C)C [Example 372, 2-[1-({5-Chloro-2-[(2-methylpropyl)oxy]phenyl}methyl)-5-methyl-1H-pyrazol-3-yl]-1H-imidazo[4,5-b]pyridine hydrochloride] |
| ≤ 10 | Cc1cc(-c2nc3ccncc3[nH]2)nn1Cc1cc(Cl)ccc1OCC(C)C [Example 373, 2-[1-({5-Chloro-2-[(2-methylpropyl)oxy]phenyl}methyl)-5-methyl-1H-pyrazol-3-yl]-1H-imidazo[4,5-c]pyridine hydrochloride] |
| ≤ 10 | Cc1cc(-c2nc3ccc(N4CCN(C)CC4)cc3[nH]2)nn1Cc1cc(Cl)ccc1OCC(C)C [Example 375, 2-[1-({5-Chloro-2-[(2-methylpropyl)oxy]phenyl}methyl)-5-methyl-1H-pyrazol-3-yl]-5-(4-methyl-1-piperazinyl)-1H-benzimidazole trihydrochloride] |
| ≤ 10 | Cc1cc(-c2nc3cc(CO)ccc3[nH]2)nn1Cc1cc(Cl)ccc1OCC(C)C [Example 377, {2-[1-({5-Chloro-2-[(2-methylpropyl)oxy]phenyl}methyl)-5-methyl-1H-pyrazol-3-yl]-1H-benzimidazol-5-yl}methanol hydrochloride] |
| ≤ 10 | Cc1c(-c2nc3cc(CN4CCN(C)CC4)ccc3[nH]2)cnn1Cc1cc(Cl)ccc1OCC(C)C [Example 381, 2-[1-({5-Chloro-2-[(2-methylpropyl)oxy]phenyl}meth-yl)-5-methyl-1H-pyrazol-4-yl]-5-[(4-methyl-1-piperazinyl)methyl]-1H-benzimidazole trihydrochloride] |
| ≤ 10 | CCN1CCN(Cc2ccc3[nH]c(-c4cnn(Cc5cc(Cl)ccc5OCC(C)C)c4C)nc3c2)CC1 [Example 382, 2-[1-({5-Chloro-2-[(2-methylpropyl)oxy]phenyl}meth-yl)-5-methyl-1H-pyrazol-4-yl]-5-[(4-ethyl-1-piperazinyl)methyl]-1H-benzimidazole trihydrochloride] |
| ≤ 10 | CNCc1ccc(NC(=O)c2cc(C)n(Cc3cc(Cl)ccc3OCC(C)C)n2)cc1 [Example 392, 1-({5-Chloro-2-[(2-methylpropyl)oxy]phenyl}methyl)-5-methyl-N-{4-[(methylamino)methyl]phenyl}-1H-pyrazole-3-carboxamide hydrochloride] |
| ≤ 10 | CCNCc1ccc(NC(=O)c2cc(C)n(Cc3cc(Cl)ccc3OCC(C)C)n2)cc1 [Example 393, 1-({5-Chloro-2-[(2-methylpropyl}oxy]phenyl}methyl)-N-{4-[(ethylamino)methyl]phenyl}-5-methyl-1H-pyrazole-3-carboxamide hydrochloride] |
| ≤ 10 | Cc1cc(C(=O)Nc2ccc(CN(C)C)cc2)nn1Cc1cc(Cl)ccc1OCC(C)C [Example 394, 1-({5-Chloro-2-[(2-methylpropyl)oxy]phenyl}methyl)-N-{4-[(dimethylamino)methyl]phenyl}-5-methyl-1H-pyrazole-3-carboxamide hydrochloride] |
| ≤ 10 | Cc1cc(C(=O)Nc2ccc(CNC(C)C)cc2)nn1Cc1cc(Cl)ccc1OCC(C)C [Example 395, 1-({5-Chloro-2-[(2-methylpropyl)oxy]phenyl}methyl)-5-methyl-N-(4-{[(1-methylethyl)amino]methyl}phenyl)-1H-pyrazole-3-carboxamide hydrochloride] |
| ≤ 10 | Cc1cc(C(=O)Nc2ccc(CN3CCCC3)cc2)nn1Cc1cc(Cl)ccc1OCC(C)C [Example 396, 1-({5-Chloro-2-[(2-methylpropyl)oxy]phenyl}methyl)-5-methyl-N-[4-(1-pyrrolidinylmethyl)phenyl]-1H-pyrazole-3-carboxamide hydrochloride] |
| ≤ 10 | Cc1cc(C(=O)Nc2ccc(CN3CCCCC3)cc2)nn1Cc1cc(Cl)ccc1OCC(C)C [Example 397, 1-({5-Chloro-2-[(2-methylpropyl)oxy]phenyl}methyl)-5-methyl-N-[4-(1-piperidinylmethyl)phenyl]-1H-pyrazole-3-carboxamide hydrochloride] |
| ≤ 10 | Cc1cc(C(=O)Nc2ccc(CN3CCOCC3)cc2)nn1Cc1cc(Cl)ccc1OCC(C)C [Example 398, 1-({5-Chloro-2-[(2-methylpropyl)oxy]phenyl}methyl)-5-methyl-N-[4-(4-morpholinylmethyl)phenyl]-1H-pyrazole-3-carboxamide hydrochloride] |
| ≤ 10 | Cc1cc(C(=O)Nc2ccc(CN3CCNC(=O)C3)cc2)nn1Cc1cc(Cl)ccc1OCC(C)C [Example 399, 1-({5-Chloro-2-[(2-methylpropyl)oxy]phenyl}methyl)-5-methyl-N-{4-[(3-oxo-1-piperazinyl)methyl]phenyl}-1H-pyrazole-3-carboxamide hydrochloride] |
| ≤ 10 | Cc1cc(-c2nc3ccc(N(C)C)cc3[nH]2)nn1Cc1cc(Cl)ccc1OCC(C)C [Example 473, 2-[1-({5-Chloro-2-[(2-methylpropyl)oxy]phenyl}methyl)-5-methyl-1H-pyrazol-3-yl]-N,N-dimethyl-1H-benzimidazol-5-amine dihydrochloride] |
